From ChEMBL document CHEMBL1149760, “Chemoenzymatic synthesis and antimicrobial activity evaluation of monogalactosyl diglycerides” (2008)

Key:
Type in all cases: functional
[1] = system: Mycobacterium tuberculosis; experiment: Antimicrobial activity against Mycobacterium tuberculosis H37Rv by agar dilution method
Staphylococcus aureus [2] = experiment: Antimicrobial activity against Staphylococcus aureus SA87 by agar dilution method
Escherichia coli = experiment: Antimicrobial activity against Escherichia coli ATCC 25922 by agar dilution method
Staphylococcus aureus [3] = experiment: Antimicrobial activity against Staphylococcus aureus SA52 by agar dilution method
[4] = system: Mycobacterium tuberculosis; experiment: Antimicrobial activity against Mycobacterium tuberculosis H190 by agar dilution method
Staphylococcus aureus [5] = experiment: Antimicrobial activity against Staphylococcus aureus SA85 by agar dilution method
Staphylococcus aureus [6] = experiment: Antimicrobial activity against Staphylococcus aureus ATCC 105487 by agar dilution method
Bacillus subtilis = experiment: Antimicrobial activity against Bacillus subtilis ATCC 6633 by agar dilution method
Pseudomonas aeruginosa = experiment: Antimicrobial activity against Pseudomonas aeruginosa ATCC 27753 by agar dilution method
[7] = system: Mycobacterium tuberculosis; experiment: Antimicrobial activity against Mycobacterium tuberculosis H160 by agar dilution method
Candida albicans = experiment: Antifungal activity against Candida albicans by agar dilution method
Enterococcus faecalis = experiment: Antimicrobial activity against Enterococcus faecalis ATCC 29212 by agar dilution method
Staphylococcus aureus [8] = experiment: Antimicrobial activity against Staphylococcus aureus ATCC 25923 by agar dilution method
Kluyveromyces marxianus = experiment: Antifungal activity against Candida pseudotropicalis by agar dilution method

Row | SMILES | MIC [1] [µg/mL] | MIC (Staphylococcus aureus [2]) [µg/mL] | MIC (Escherichia coli) [µg/mL] | MIC (Staphylococcus aureus [3]) [µg/mL] | MIC [4] [µg/mL] | MIC (Staphylococcus aureus [5]) [µg/mL] | MIC (Staphylococcus aureus [6]) [µg/mL] | MIC (Bacillus subtilis) [µg/mL] | MIC (Pseudomonas aeruginosa) [µg/mL] | MIC [7] [µg/mL] | MIC (Candida albicans) [µg/mL] | MIC (Enterococcus faecalis) [µg/mL] | MIC (Staphylococcus aureus [8]) [µg/mL] | MIC (Kluyveromyces marxianus) [µg/mL]
1 | CCCCC/C=C/C/C=C/CCCCCCCC(=O)OC(COC(=O)CCCCCCCCC)CO[C@@H]1O[C@H](CO)[C@H](O)[C@H](O)[C@H]1O (mixture of isomers) | > 128 | 64 | > 128 | > 128 | > 128 | 64 | 64 | 128 | > 128 | > 128 | > 128 | 128 | > 128 | > 128
2 | CCCCC/C=C/C/C=C/CCCCCCCC(=O)OC(COC(=O)CCCCCCC)CO[C@@H]1O[C@H](CO)[C@H](O)[C@H](O)[C@H]1O (mixture of isomers) | 64 | 128 | > 128 | > 128 | 128 | > 128 | > 128 | 128 | > 128 | 64 | > 128 | > 128 | > 128 | > 128
3 | CC/C=C/C/C=C/C/C=C/CCCCCCCC(=O)OCC(CO[C@@H]1O[C@H](CO)[C@H](O)[C@H](O)[C@H]1O)OC(=O)CCCCCCC/C=C/C/C=C/C/C=C/CC (mixture of isomers) | > 128 | > 128 | > 128 | > 128 | > 128 | > 128 | > 128 | > 128 | > 128 | > 128 | > 128 | > 128 | 128 | > 128
4 | CCCCCCCC/C=C/CCCCCCCC(=O)OC(COC(=O)CCCCCCCCC)CO[C@@H]1O[C@H](CO)[C@H](O)[C@H](O)[C@H]1O (mixture of isomers) | > 128 | > 128 | > 128 | > 128 | > 128 | 128 | > 128 | 32 | > 128 | > 128 | > 128 | > 128 | 128 | > 128
5 | CC/C=C/C/C=C/C/C=C/CCCCCCCC(=O)OC(COC(=O)CCCCCCCCC)CO[C@@H]1O[C@H](CO)[C@H](O)[C@H](O)[C@H]1O (mixture of isomers) | > 128 | 32 | > 128 | > 128 | > 128 | 64 | > 128 | > 128 | > 128 | > 128 | > 128 | > 128 | > 128 | > 128
6 | CC/C=C/C/C=C/C/C=C/CCCCCCCC(=O)OC(COC(=O)CCCCCCC)CO[C@@H]1O[C@H](CO)[C@H](O)[C@H](O)[C@H]1O (mixture of isomers) | 128 | 64 | > 128 | > 128 | 128 | > 128 | > 128 | 128 | > 128 | 128 | > 128 | > 128 | > 128 | > 128
7 | CCCCCCCC/C=C/CCCCCCCC(=O)OC(COC(=O)CCCCCCC)CO[C@@H]1O[C@H](CO)[C@H](O)[C@H](O)[C@H]1O (mixture of isomers) | 128 | 64 | > 128 | > 128 | 64 | > 128 | > 128 | 128 | > 128 | 64 | > 128 | > 128 | > 128 | > 128
8 | CCCCC/C=C/C/C=C/CCCCCCCC(=O)OCC(CO[C@@H]1O[C@H](CO)[C@H](O)[C@H](O)[C@H]1O)OC(=O)CCCCCCC/C=C/C/C=C/CCCCC (mixture of isomers) | 128 | 128 | > 128 | > 128 | 128 | > 128 | > 128 | 128 | > 128 | 128 | > 128 | > 128 | > 128 | > 128
9 | CCCCCCCC/C=C/CCCCCCCC(=O)OCC(CO[C@@H]1O[C@H](CO)[C@H](O)[C@H](O)[C@H]1O)OC(=O)CCCCCCC/C=C/CCCCCCCC (mixture of isomers) | > 128 | > 128 | > 128 | > 128 | > 128 | > 128 | > 128 | > 128 | > 128 | > 128 | > 128 | > 128 | > 128 | > 128
